Laboratory results as given in patent publication US8410080B1, “2-methylene-vitamin D analogs and their uses” (Wisconsin Alumni Research Foundation, priority 2011, dated 2013).
“Also recorded” adds a separate entry of the source. Read-outs that look alike come from different tables or passages of the source.

Assays:
[1] = test system: 24-hydroxylase (24Ohase) gene promoter; test: In vitro transcription assay, luciferase reporter in ROS 17/2.8 (bone) cells; format: cell-based; conditions: for EC50: ROS 17/2.8 cells, 24-hydroxylase promoter-luciferase, sixteen hours after dosing, read-out: EC50, transcriptional activity in bone cells; for potency relative to 1,25(OH)2D3 in increasing transcription of the 24-hydroxylase gene: bone cells, fold more potent than 1,25(OH)2D3
Protocol: Transcription activity was measured in ROS 17/2.8 (bone) cells that were stably transfected with a 24-hydroxylase (24Ohase) gene promoter upstream of a luciferase reporter gene (Arbour et al., 1998). Cells were given a range of doses. Sixteen hours after dosing the cells were harvested and luciferase activities were measured using a luminometer. RLU=relative luciferase units.

[2] = Bone calcium mobilization (serum calcium) in vitamin D-deficient rats; format: in vivo, rat; conditions: for bone calcium mobilization activity (serum calcium), in words: dosages tested; for bone calcium mobilization activity (serum calcium), in words / mobilization of bone calcium at 780 pmol/day: 0.02% Ca diet; for mobilization of bone calcium at 780 pmol/day: 780 pmol/day for 4 consecutive days; for potency relative to the native hormone in releasing bone calcium stores: low calcium diet (0.02%), four consecutive ip doses
Protocol: (§1) Male, weanling Sprague-Dawley rats were placed on Diet 11 (Suda et al, J. Nutr. 100:1049, 1970) (0.47% Ca)+vitamins AEK for one week followed by Diet 11 (0.02% Ca)+vitamins AEK for 3 weeks. The rats were then switched to the same diet containing 0.47% Ca for one week followed by two weeks on the same diet containing 0.02% Ca. Dose administration began during the last week on 0.02% calcium diet. Four consecutive ip doses were given approximately 24 hours apart. Twenty-four hours after the last dose, blood was collected from the severed neck and the concentration of serum calcium determined by atomic absorption spectrometry as a measure of bone calcium mobilization. The first 10 cm of the intestine was also collected for intestinal calcium transport analysis using the everted gut sac method.

[3] = test system: Human promyelocytic leukemia (HL60) cells; test: HL-60 differentiation (nitro blue tetrazolium reduction); format: cell-based; conditions: for EC50: HL60 cells, four days of treatment, read-out: EC50, ability to promote HL60 differentiation; for potency on HL-60 cell differentiation compared to 1,25(OH)2D3, in words: HL-60 cells
Protocol: Serial dilutions were prepared so that a range of drug concentrations could be tested without changing the final concentration of ethanol (≦0.2%) present in the cell cultures.
Human promyelocytic leukemia (HL60) cells were grown in RPMI-1640 medium containing 10% fetal bovine serum. The cells were incubated at 37° C. in the presence of 5% CO2.
HL60 cells were plated at 1.2×10^5 cells/ml. Eighteen hours after plating, cells in duplicate were treated with drug. Four days later, the cells were harvested and a nitro blue tetrazolium reduction assay was performed (Collins et al., 1979; J. Exp. Med. 149:969-974). The percentage of differentiated cells was determined by counting a total of 200 cells and recording the number that contained intracellular black-blue formazan deposits. Verification of differentiation to monocytic cells was determined by measuring phagocytic activity (data not shown).

[4] = molecular target: T1, full-length recombinant rat vitamin D receptor (Rattus norvegicus, UniProt P13053)
T1 sequence (P13053 1-423): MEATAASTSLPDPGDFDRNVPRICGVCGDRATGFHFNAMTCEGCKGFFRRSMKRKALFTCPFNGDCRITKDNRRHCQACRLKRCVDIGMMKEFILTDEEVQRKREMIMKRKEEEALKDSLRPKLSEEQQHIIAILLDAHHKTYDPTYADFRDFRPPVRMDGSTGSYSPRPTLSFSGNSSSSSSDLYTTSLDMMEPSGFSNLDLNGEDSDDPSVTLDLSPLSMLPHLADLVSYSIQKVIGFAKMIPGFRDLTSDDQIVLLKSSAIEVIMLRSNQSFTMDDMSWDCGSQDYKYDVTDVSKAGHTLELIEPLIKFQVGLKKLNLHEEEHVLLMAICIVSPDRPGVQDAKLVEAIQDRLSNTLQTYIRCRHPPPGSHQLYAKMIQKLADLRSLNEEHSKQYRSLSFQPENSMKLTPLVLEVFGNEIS
Protocol: (§2) Full-length recombinant rat receptor was expressed in E. coli BL21 (DE3) Codon Plus RIL cells and purified to homogeneity using two different column chromatography systems. The first system was a nickel affinity resin that utilizes the C-terminal histidine tag on this protein. The protein that was eluted from this resin was further purified using ion exchange chromatography (S-Sepharose Fast Flow). Aliquots of the purified protein were quick frozen in liquid nitrogen and stored at −80° C. until use. For use in binding assays, the protein was diluted in TEDK50 (50 mM Tris, 1.5 mM EDTA, pH7.4, 5 mM DTT, 150 mM KCl) with 0.1% Chaps detergent. The receptor protein and ligand concentration was optimized such that no more than 20% of the added radiolabeled ligand was bound to the receptor.
(§3) Radiolabeled and unlabeled ligands were added to 100 mcl of the diluted protein at a final ethanol concentration of ≦10%, mixed and incubated overnight on ice to reach binding equilibrium. The following day, 100 mcl of hydroxylapatite slurry (50%) was added to each tube and mixed at 10-minute intervals for 30 minutes. The hydroxylapaptite was collected by centrifugation and then washed three times with Tris-EDTA buffer (50 mM Tris, 1.5 mM EDTA, pH 7.4) containing 0.5% Titron X-100. After the final wash, the pellets were transferred to scintillation vials containing 4 ml of Biosafe II scintillation cocktail, mixed and placed in a scintillation counter. Total binding was determined from the tubes containing only radiolabeled ligand.

[5] = Intestinal calcium transport, everted gut sac method, in vitamin D-deficient rats; format: in vivo, rat; conditions: compared to 1,25(OH)2D3
Protocol: as §1

[6] = molecular target: T1, full-length recombinant rat vitamin D receptor; test: biochemical
Protocol: as §2, §3

| EC50 [1] [nM] | binding affinity to the receptor compared to the standard 1,25-(OH)2D3, in words [4] | Ki [6] [nM] | EC50 ([3]; Homo sapiens, HL-60, 96 h) [nM] | SMILES | bone calcium mobilization activity (serum calcium), in words [2] | EC50 [3] [nM] | potency relative to 1,25(OH)2D3 in increasing transcription of the 24-hydroxylase gene [1] | intestinal calcium transport activity, in words [5] | mobilization of bone calcium at 780 pmol/day [2] | potency relative to the native hormone in releasing bone calcium stores [2] | potency on HL-60 cell differentiation compared to 1,25(OH)2D3, in words [3] |
| --- | --- | --- | --- | --- | --- | --- | --- | --- | --- | --- | --- |
| 0.03 | about the same affinity | 0.06 | 7 | C=C1/C(=C\C=C2/CCC[C@]3(C)[C@@H]([C@H](C)CCCC(C)(C)O)CC[C@@H]23)C[C@@H](O)C(=C)[C@@H]1O [2EG-R, (20R)-1α,25-dihydroxy-2-methylene-vitamin D3] | more potent than the native hormone | – | about 10 times | more potent than 1,25(OH)2D3; also recorded: very significant activity | significant mobilization of bone calcium | at least 10 times | – |
| 0.005 | about the same affinity | 0.1 | 0.06 | C=C1/C(=C\C=C2/CCC[C@]3(C)[C@@H]([C@@H](C)CCCC(C)(C)O)CC[C@@H]23)C[C@@H](O)C(=C)[C@@H]1O [2EG-S, (20S)-1α,25-dihydroxy-2-methylene-vitamin D3] | more potent than the native hormone | – | about 40 times | more potent than 1,25(OH)2D3; also recorded: very significant activity | significant mobilization of bone calcium | at least 10 times | more potent than 1,25(OH)2D3 |
| – | about the same affinity | 0.1 | 0.3 | C=C1/C(=C/C=C2\CCC[C@]3(C)[C@@H]([C@@H](C)CCCC(C)(C)O)CC[C@@H]23)C[C@@H](O)C(=C)[C@@H]1O [T-2EG-S, (5E)-(20S)-1α,25-dihydroxy-2-methylene-vitamin D3] | more potent than the native hormone | – | about 10 times | about the same potency as 1,25(OH)2D3; also recorded: very significant activity | significant mobilization of bone calcium | at least 10 times | more potent than 1,25(OH)2D3 |

| SMILES | EC50 [1] [nM] | binding affinity to the receptor compared to the standard 1,25-(OH)2D3, in words [4] | Ki [6] [nM] | EC50 ([3]; Homo sapiens, HL-60, 96 h) [nM] | bone calcium mobilization activity (serum calcium), in words [2] | EC50 [3] [nM] | potency relative to 1,25(OH)2D3 in increasing transcription of the 24-hydroxylase gene [1] | intestinal calcium transport activity, in words [5] | mobilization of bone calcium at 780 pmol/day [2] | potency relative to the native hormone in releasing bone calcium stores [2] | potency on HL-60 cell differentiation compared to 1,25(OH)2D3, in words [3] |
| --- | --- | --- | --- | --- | --- | --- | --- | --- | --- | --- | --- |
| C=C1/C(=C\C=C2/CCC[C@]3(C)[C@@H]([C@H](C)CCCC(C)(C)O)CC[C@@H]23)C[C@@H](O)C[C@@H]1O [1α,25-dihydroxyvitamin D3, reference compound] | 0.2 | – | – | – | increased serum calcium levels | 3 | – | – | – | – | – |
